According to patent US12707888B2, “Asymmetric donor-acceptor molecular dyes” (THE UNIVERSITY OF NORTH CAROLINA AT CHARLOTTE, priority 2019, dated 2026):

How the values were obtained:
[1] = Temperature studies of emission in MeTHF (thermofluorochromism); assay type: physicochemical; details: for wavelength of emission: 10 μM in MeTHF
Protocol: In an extension of sensing the surrounding polarity, the dependence of the wavelength of emission as a function of temperature and pH were also explored. For these efforts, Bu2N-TTz-Py was chosen as a focal representative of the asymmetric TTzs for its solubility, amphiphilicity, high Stokes shifts, and otherwise similar photophysical characteristics. For the temperature studies, a 10 μM MeTHF solution of Bu2N-TTz-Py was prepared and the emission of the solution was monitored from −196-60° C. MeTHF was chosen for its wide liquid temperature window and ability to form a glass upon freezing; most other solvents crystallize upon solidification and inhibit fluorescence. The low temperature studies were achieved using various liquid N2 cooling baths (see Experimental). Due to the condensation of atmospheric moisture during low-temperature testing, only the normalized emission intensities are reported. […] At temperatures near the freezing point of MeTHF and below, however, the wavelength of emission rapidly blue-shifts from 559 to 544 to 503 nm at −131, −136, and −196° C., respectively.
4-pyridine carboxaldehyde, 4-(dibutylamino)benzaldehyde, 4-(diphenylamino)benzaldehyde, terephthalaldehyde, dithiooxamide, and all solvents used for spectroscopic measurements were purchased from Sigma-Aldrich and used without further purification. ^1H and ^13CNMR measurements were obtained with either a JEOL 300 MHz NMR or a JEOL 500 MHz NMR. High resolution mass spectra were obtained using a Thermo Fisher Scientific MSQ Plus Single Quadrupole Mass Spectrometer. Solution-state UV-Vis spectra were collected on a Cary 300 UV-Vis spectrophotometer. Time-resolved measurements were taken on a Jobin Yvon-Spex Fluorolog equipped with a 389 nm diode laser for time-resolved PL decay measurements. Igor Pro 6.3 software was used to fit PL(t) decay data to single/multiple exponential decays. Quantum yields were calculated using 9,10-diphenylanthracene as a reference (quantum yield [ΦF] in cyclohexane=0.97).^40-41 Density functional theory (DFT) calculations were performed with Spartan computational software using B3LYP^42-43 density functional and 6-31G*^44 basis set. Temperature studies were conducted using a 10 μM Bu2N-TTz-Py MeTHF solution placed inside of a Norrell 502 NMR tube and sequentially submerged in the following liquid N2 baths:octanol (−16° C.), acetonitrile (−41° C.), acetone (−94° C.), pentane (−131° C.), MeTHF (−136° C.), and liquid N2 itself (−196° C.). The phosphorescence spectrum of Bu2N-TTz-Py (see S2) was collected similarly at −196° C. by pumping with 389 nm light while inside a liquid nitrogen bath and then probing the emission within 2 sec of removing from the bath. Human embryonic kidney cells (HEK 293T) were a kind gift from Prof. Bryan Dickinson, and Mouse macrophage J774A.1 cells were a kind gift from Prof. Deborah Nelson at the University of Chicago. Cells were cultured in Dulbecco's Modified Eagle's Medium (Invitrogen Corporation, USA) containing 10% heat inactivated Fetal Bovine Serum (FBS) (Invitrogen Corporation, USA), 100 U/mL penicillin, and 100 μg/mL streptomycin. Cells were maintained at 37° C. under 5% CO2.

J774.A1 cells = assay: Cell labeled spectral measurements; assay type: cell-based, Mouse
Protocol: FIG. 11C are normalized excitation/emission spectra of 1 μM Bu2N-TTz-Py in PBS buffer with 0.1% TritonX-100 before and after loading into ~0.5×10^5 J774.A1 cells. Excitation spectra (dashed line) were collected at 520 nm and emission spectra (solid line) were collected with 440 nm excitation.
Cell labeled spectral measurements. Excitation and emission spectra were collected by labeling the alveolar macrophage cell line J774.A1 (~0.5×10^5 cells) with 1 μM Bu2N-TTz-Py in phosphate buffered saline (PBS) buffer and 0.1% TritonX-100. Cells were incubated with dye for 10 min at RT, washed thrice with PBS, and dispersed in a cuvette for fluorescent spectral measurements (Fluoromax-4, Horiba Scientific, Edison, NJ, USA). Excitation spectra were collected at 520 nm emission. Emission spectra were collected by exciting at 440 nm. Electrophysiology. Whole cell voltage clamping measurements of 500 nM Bu2N-TTz-Py labeled HEK 293T cells were performed with Axopatch 200A amplifier (Molecular Devices), digitized using an NI-6251 DAQ (National Instruments), and controlled using WinWCP software (Strathclyde Electrophysiology Software). Patch pipettes were pulled using a Sutter P-97 Micropipette puller. Patch pipettes with resistances between 5-10 MOhm were used in voltage clamping experiments. The patch pipette was positioned using an MP325 motorized manipulator (Sutter). Metamorph premier Ver. 7.8.12.0 was linked to an NI-6501 DAQ to enable voltage triggered image acquisition. Extracellular solution composition was 145 mM NaCl, 20 mM glucose, 10 mM HEPES, pH 7.4, 3 mM KCl, 2 mM CaCl2), 1 mM MgCl2 (310 mOsm); and the intracellular solution composition was 115 mM potassium gluconate, 10 mM EGTA tetrapotassium salt, 10 mM HEPES, pH 7.2, 5 mM NaCl, 10 mM KCl, 2 mM ATP disodium salt (290 mOsm).

wavelength of emission ([1]; 60° C.): 519 nm
wavelength of emission ([1]; −131° C.): 559 nm
wavelength of emission ([1]; −136° C.): 544 nm
wavelength of emission ([1]; −196° C.): 503 nm
temperature sensitivity of emission wavelength ([1]; TTz/MeTHF solution, liquid range of MeTHF): −0.21 nm ° C.^−1
peak emission wavelength (J774.A1 cells; localized to cell membranes, 440 nm excitation): 483 nm
peak excitation wavelength (J774.A1 cells; localized to cell membranes, collected at 520 nm emission): 423 nm
wavelength of peak emission (J774.A1 cells; solution of PBS with 0.1% Triton-X100, before loading into cells): 518 nm
Compound: CCCCN(CCCC)c1ccc(-c2nc3sc(-c4ccncc4)nc3s2)cc1 [Bu2N-TTz-Py, 2-(N,N-dibutyl-4-aminophenyl)-5-(4-pyridyl) thiazolo[5,4-d]thiazole]
